In assay [1] the test system is 1XAV (DNA, G4) TGAGGGTGGGTAGGGTGGGTAA
Nature of the assay: native ESI-MS titration. The conditions noted are these: 0.5 mM K+; 100 mM TMAA pH 6.8, 10 µM DNA; stepwise KD1.

Assay [2] has as its system 222T_mA (DNA, G4) TGGGTTGGGAAGGGTTGGGT
The assay is described as follows: native ESI-MS screening (single concentration). The conditions noted are these: 0.5 mM K+, 100 mM TMAA pH 6.8, 10 µM DNA, 20 µM ligand.

In assay [3] the test system is 222T (DNA, G4) TGGGTTGGGTTGGGTTGGGT
The assay is described as follows: native ESI-MS screening (single concentration). The note with it: 0.5 mM K+, 100 mM TMAA pH 6.8, 10 µM DNA, 20 µM ligand.

The subject of assay [4] is 5YEY (DNA, G4) GGGTTAGGGTTAGGGTTTGGG
Nature of the assay: native ESI-MS titration. The conditions noted are these: 0.5 mM K+, 100 mM TMAA pH 6.8, 10 µM DNA.

Assay [5] concerns 21G (DNA, G4) GGGTTAGGGTTAGGGTTAGGG
Nature of the assay: native ESI-MS titration. The note with it: 0.5 mM K+; 100 mM TMAA pH 6.8, 10 µM DNA; KD1 differs 20-fold from 5YEY.

Assay [6] has as its system 5YEY (DNA, G4) GGGTTAGGGTTAGGGTTTGGG
Nature of the assay: UV melting 295 nm. The conditions noted are these: 0.5 mM K+; 100 mM TMAA pH 6.8; 10 µM DNA, 20 µM QQPQ.

Assay [7] deals with 22GT_18T (DNA, G4) GGGTTAGGGTTAGGGTTTGGGT
Nature of the assay: native ESI-MS screening (single concentration). The conditions noted are these: 0.5 mM K+; 100 mM TMAA pH 6.8, 10 µM DNA, 20 µM ligand; stepwise KD1.

Assay [8] concerns T30177TT (DNA, G4) TTGTGGTGGGTGGGTGGGT
The assay is described as follows: UV melting 295 nm. The conditions noted are these: 0.5 mM K+; 100 mM TMAA pH 6.8; 10 µM DNA, 20 µM QQPQ; two transitions.

Assay [9] has as its system 222T (DNA, G4) TGGGTTGGGTTGGGTTGGGT
The assay is described as follows: UV melting 295 nm. The conditions noted are these: 0.5 mM K+; 100 mM TMAA pH 6.8; 10 µM DNA, 20 µM QQPQ; two transitions.

Another assay deals with TG4T (DNA, G4) TGGGGT. Nature of the assay: native ESI-MS screening (single concentration). The note with it: K+ 0.5 mM (KCl) with 100 mM TMAA, or NH4+ 150 mM; source does not say which; pH 6.8, 10 µM DNA, 20 µM ligand; stepwise KD1.
Assay [10] concerns T24 (DNA, single strand) TTTTTTTTTTTTTTTTTTTTTTTT
The assay is described as follows: native ESI-MS titration. The conditions noted are these: 0.5 mM K+; 100 mM TMAA pH 6.8, 10 µM DNA, up to 40 µM ligand.

For assay [11], the system named is 1XAV (DNA, G4) TGAGGGTGGGTAGGGTGGGTAA
The assay is described as follows: native ESI-MS screening (single concentration). The note with it: 0.5 mM K+, 100 mM TMAA pH 6.8, 10 µM DNA, 20 µM ligand.

In assay [12] the test system is 26TTA (DNA, G4) TTAGGGTTAGGGTTAGGGTTAGGGTT
The assay is described as follows: native ESI-MS screening (single concentration). The note with it: 0.5 mM K+; 100 mM TMAA pH 6.8, 10 µM DNA, 20 µM ligand; stepwise KD1.

The test system of assay [13] is 5YEY (DNA, G4) GGGTTAGGGTTAGGGTTTGGG
Nature of the assay: native ESI-MS screening (single concentration). The note with it: 0.5 mM K+; 100 mM TMAA pH 6.8, 10 µM DNA, 20 µM ligand; stepwise KD1 (KD2 40).

[14] abbreviates: stepwise KD1, exact value in Table S3.

The term ΔTm denotes the change in melting temperature against a reference sample. For orientation: KD means the concentration at which binding is half-saturated.

For `CC(=O)Nc1cccc2c(OCCCN)cc(C(=O)Nc3cccc4c(OCCCN)cc(C(=O)Nc5cccc6c(OCCCN)cc(C(=O)Nc7cccc8c(OCCCN)cc(C(=O)O)nc78)nc56)nc34)nc12`, the KD1 was 0.075 ± 0.059 µM in assay [1]; 12 µM in assay [2] (stepwise KD1 (KD2 4.5)); 1.1 µM in assay [3] (stepwise KD1 (KD2 2.0)); < 10 µM in assay [4] (setting [14]); 330 ± 23 µM in assay [5].
In the case of `CC(=O)Nc1cccc2c(OCCCN)cc(C(=O)Nc3cccc4c(OCCCN)cc(C(=O)NCc5cccc(C(=O)Nc6cccc7c(OCCCN)cc(C(=O)O)nc67)n5)nc34)nc12`, the ΔTm entry in assay [6] is “+8.2 °C”; in assay [8] it was 17 °C; in [9], “~ +26 °C”. Also, the KD1 in [7] is recorded as ~ 5 µM; in [2] (stepwise KD1 (KD2 1.0)), 2.2 µM; in the assay with TG4T (DNA, G4) TGGGGT, ~ 5 µM; in [3] (stepwise KD1 (KD2 2.1)), 0.5 µM; in [4] (stepwise KD1 (KD2 200 ± 70), screening gave 1.5), 0.54 ± 0.1 µM; in assay [11] (stepwise KD1 (KD2 1.5)), 0.5 µM. Also, the KD1 in [12] is ~ 5 µM. Besides, the KD in assay [10] is given as > 100 µM.
`CC(=O)Nc1cccc2c(OCCCN)cc(C(=O)NCc3cccc(C(=O)Nc4cccc5c(OCCCN)cc(C(=O)O)nc45)n3)nc12`: the KD1 in assay [2] (stepwise KD1 (KD2 14)) worked out at 25 µM; in assay [3] (stepwise KD1 (KD2 22)), 4.8 µM; in [11] (stepwise KD1 (KD2 27)), 15 µM. Besides, the KD in assay [10] was > 100 µM.
With `CC(=O)Nc1cccc2c(OCCCN)cc(C(=O)Nc3cccc4c(OCCCN)cc(C(=O)Nc5cccc6c(OCCCN)cc(C(=O)Nc7cccc8c(OCCCN)cc(C(=O)Nc9cccc%10c(OCCCN)cc(C(=O)Nc%11cccc%12c(OCCCN)cc(C(=O)Nc%13cccc%14c(OCCCN)cc(C(=O)Nc%15cccc%16c(OCCCN)cc(C(=O)O)nc%15%16)nc%13%14)nc%11%12)nc9%10)nc78)nc56)nc34)nc12`, the KD1 in assay [1] was determined as 28 ± 6.7 µM.
Consider `CC(=O)Nc1cccc2c(OCCCN)cc(C(=O)NCc3cccc(C(=O)NCc4cccc(C(=O)Nc5cccc6c(OCCCN)cc(C(=O)O)nc56)n4)n3)nc12`, for which the KD1 in assay [13] was 75 µM; in assay [2] (stepwise KD1 (KD2 3.4)), 8.9 µM; in assay [3] (stepwise KD1 (KD2 5.4)), 2.3 µM; in assay [11] (stepwise KD1 (KD2 7.4)), 5.2 µM. For the same compound, the KD in assay [10] is listed as > 100 µM.
For `CC(=O)Nc1cccc2c(OCCCN)cc(C(=O)Nc3cccc4c(OCCCN)cc(C(=O)Nc5cccc6c(OCCCN)cc(C(=O)Nc7cccc8c(OCCCN)cc(C(=O)Nc9cccc%10c(OCCCN)cc(C(=O)O)nc9%10)nc78)nc56)nc34)nc12`, the KD1 in [4] (setting [14]) was < 10 µM.

Source of the values: paper PMC12754783 (2025).
